This data set in a line: Serum testosterone responder analysis after oral dosing (Table 3). Type of data set: in vivo, human. As for the experimental part: Some of the dosage forms of compositions described herein comprising or prepared from (17-β)-3-Oxoandrost-4-en-17-yl tridecanoate were administered to human subjects as a single dose of the esters to subjects. Serial blood samples were drawn at predetermined time (e.g., t=0, 12, 24, etc.) and analyzed for testosterone concentration using a validated HPLC-MS/MS analytical method. The Cmax, Cavg t1-t2, Tmax and AUCt1-t2 are calculated for testosterone in the serum of the subjects. Pharmacokinetic and statistical analyses are performed on the data obtained from the subjects. The pharmacokinetic parameters are defined as follows: • AUCt1-t2: The area under the serum concentration versus time curve, from time t1 (in hours) to time t2 (in hours) measurable concentration of the administered drug, as calculated by the linear trapezoidal method. […] This represents the average serum testosterone level over a period starting from time 0 (zero) hours to […] post-administration of dose. It should also be noted that Cavg t0-t24 is also referred to as simply “Cavg” in this invention. • Cavg t0-t12: The average serum concentration of testosterone obtained by dividing the AUCt0-t12 value by 12. This represents the average serum testosterone level over a period starting from time 0 (zero) hours to […] post-administration of dose. • Cavg t12-24: The average serum concentration of testosterone obtained by dividing the AUCt12-t24 value by 12. This represents the average serum testosterone level over the second half of the 24-hours post-administration of dose period; i.e., from a period starting from time 12 hours to time 24 hours post-administration of dose.

[1] abbreviates: starting dose 100 (±50) mg T equivalent QD or BID.
Where [2] appears, read: starting dose 300 (±50) mg T equivalent QD.
[3] abbreviates: starting dose 350 (±100) mg T equivalent BID.
The mark [4] stands for this setting: starting dose 1000 (±200) mg T equivalent QD or BID.

We go through one molecule from patent publication US20200046731A1, “BI[…] STATE (17- β)-HYDROXY-4-ANDROSTEN-3-ONE ESTERS” (Lipocine Inc., priority 2014, published 2020).

On to `CCCCCCCCCCCCC(=O)O[C@H]1CC[C@H]2[C@@H]3CCC4=CC(=O)CC[C@]4(C)[C@H]3CC[C@]12C` [(17-β)-3-Oxoandrost-4-en-17-yl tridecanoate], for which the “% Responders with Cave t0-t24 (ng/dL) 300-1140” value is, setting by setting: under setting [1], 50-65%; (starting dose 300 (±50) mg T equivalent QD, 12-20% EAPI formulation) 100%; under setting [3], 100%; under setting [4], 100%. Besides, the “% Responders with Cmax (ng/dL) 1800-2500” value is 0-5% under setting [1], 0-5% under setting [2], 0-5% under setting [3] and 20-30% under setting [4]. For the same molecule, the “% Responders with Cmax (ng/dL) >2500” value under setting [1] is reported as 0-1%, the “% Responders with Cmax (ng/dL) >2500” value under setting [2] is recorded as 0-1%, the “% Responders with Cmax (ng/dL) >2500” value under setting [3] was 0-1% and the “% Responders with Cmax (ng/dL) >2500” value under setting [4] is listed as 60-80%. In addition, the “% Responders with Cmax (ng/dL) ≤1500” value was found to be 100% under setting [1], 100% under setting [2], 100% under setting [3] and 0% under setting [4].
